Reference: patent US10159671B2, “Compositions of multiple aripiprazole prodrugs” (ALKERMES PHARMA IRELAND LIMITED, priority 2016, dated 2018)

How the values were obtained:
Solubility in water = format: physicochemical
Method: The present invention combines particle populations of at least two distinct aripiprazole prodrugs. In a preferred embodiment the composition comprises a particle population of aripiprazole lauroxil and aripiprazole cavoxil particles. The physical and chemical properties of the aripiprazole prodrugs within the scope of the present invention can vary considerably. For instance, aripiprazole cavoxil was determined to have a solubility in water of less than about 1 μg/ml, whereas aripiprazole lauroxil was determined to have a solubility of less than about 4 ng/mL.

[1] = Solubility in a solution comprising 1.5% (w/w) polysorbate 20; format: physicochemical; details: aqueous solution with 1.5% (w/w) polysorbate 20, aqueous with cosolvent or surfactant or cyclodextrin; 1.5% (w/w) polysorbate 20 at 40° C., pH 7
Source text: These represent significant differences in the water solubility of the aforementioned prodrugs.

| Structure (SMILES) | solubility (Solubility in water) [µg/mL] | solubility [1] [µg/mL] |
| --- | --- | --- |
| CCCCCC(=O)OCN1C(=O)CCc2ccc(OCCCCN3CCN(c4cccc(Cl)c4Cl)CC3)cc21 [aripiprazole cavoxil, (7-(4-(4-(2,3-Dichlorophenyl)piperazin-1-yl)butoxy)-2-oxo-3,4-dihydroquinolin-1(2H)yl)methyl hexanoate] | < 1 | < 50 |
| CCCCCCCCCCCC(=O)OCN1C(=O)CCc2ccc(OCCCCN3CCN(c4cccc(Cl)c4Cl)CC3)cc21 [aripiprazole lauroxil, Dodecanoic acid, [7-[4-[4-(2,3-dichlorophenyl)-1-piperazinyl]butoxy]-3,4-dihydro-2-oxo-1(2H)-quinolinyl]methyl ester] | < 0.004 | < 2 |
